What was measured:
Type in all cases: cell-based
[1] = target: ACKR3 (Homo sapiens, UniProt P25106); test: ACKR3 β-arrestin recruitment assay (PathHunter, β-galactosidase complementation); conditions: for EC50: stable human ACKR3-β-arrestin-2-CHO cells, mean ± SEM, at least two independent experiments in duplicate
Method: (§1) Compounds were evaluated for agonist activity using a β-arrestin recruitment assay based on β-galactosidase complementation (PathHunter, DiscoverX). Stable human ACKR3-β-arrestin-2-CHO cells (DiscoverX) were plated into 96-well white-walled assay plates at 15,000 cells/well in Cell Plating Reagent 2 (DiscoveRx) and incubated at 37° C., 5% CO2 overnight. The next day, test compounds were prepared at 10× concentration in DPBS/1% DMSO and 10 μL was added to the cells. CXCL-12 was included as a positive agonist control. Following a 1.5 hr incubation at 37° C., 55 μL of detection reagent (prepared according to the manufacturer's specifications) was added to each well. The plate was incubated at room temperature for 1 hr, after which luminescence was measured at 1 sec/well using an EnSpire multimode plate reader (PerkinElmer). Relative luminescence units (RLU) were plotted against the log of compound concentration and data were fit to a three-parameter logistic curve to generate EC50 values (GraphPad Prism). EC50 and % Emax values are reported as means±SEM and are the result of at least two independent experiments performed in duplicate. The CXCR4 assay was run similarly except that human CXCR4-C2Cl2 cells (DiscoverX) were plated at 20,000 cells/well in Cell Plating Reagent 9. The next day, the media was removed and cells were incubated with Cell Plating Reagent 4 for 3 hrs, after which the assay was conducted as described above.

[2] = target: T1, human CXCR4 (Homo sapiens, UniProt P61073); test: CXCR4 β-arrestin recruitment assay (PathHunter); conditions: human CXCR4-C2Cl2 cells, relative to CXCL-12
T1 construct: host or cells: C2C12
Method: as §1

[3] = target: T2, CaV 3.2 (Homo sapiens, UniProt O95180); test: CaV 3.2 calcium assay in stable human CaV3.2-HEK293 cells; conditions: control agonist calcium chloride
T2 construct: expressed in transfected cells
Method: (§2) Compounds were evaluated for kappa (KOR), mu (MOR), and delta (DOR) opioid receptor agonist and antagonist activity in three individual cell lines overexpressing Gαq16 (CHO-RD-HGA16, Molecular Devices) and the human kappa, mu, and delta opioid receptors, respectively. The day before the assay, cells were plated into 96-well black-walled assay plates at 30,000 cells/well in Ham's F12 supplemented with 10% fetal bovine serum, and 100 units of penicillin and streptomycin. The cells were incubated overnight at 37° C., 5% CO2. Prior to the assay, Calcium 5 dye (Molecular Devices) was reconstituted according to the manufacturer's instructions. The reconstituted dye was diluted 1:40 in pre-warmed (37° C.) assay buffer (1×HBSS, 20 mM HEPES, 2.5 mM probenecid, pH 7.4 at 37° C.). Growth medium was removed and the cells were gently washed with 100 μL of pre-warmed (37° C.) assay buffer. The cells were incubated for 45 minutes at 37° C., 5% CO2 in 200 μL of the diluted Calcium 5 dye. For the agonist screen, a single concentration of each test compound and receptor-specific controls (U69,593, DAMGO, and DPDPE for KOR, MOR, and DOR, respectively) were prepared at 10× the desired final concentration in 1% DMSO/assay buffer, aliquoted into a 96-well polystyrene plate, and warmed to 37° C. After the dye-loading incubation period, pretreatment solution was added to each well (25 μL of 9% DMSO/assay buffer) and, after 15 min, the plate was read with a FlexStation II (Molecular Devices). Calcium-mediated changes in fluorescence were monitored every 1.52 seconds over a 60 second time period, with the FlexStation II adding 50 μL of test compounds at the 19 second time point (excitation at 485 nm, detection at 525 nm). Peak kinetic reduction (SoftMax, Molecular Devices) relative fluorescence units (RFU) were used to calculate % control agonist Emax with the equation % Emax=(test compound RFU/control agonist RFU)×100. For the antagonist screens, the same procedure was followed except that the pretreatment solution consisted of the test compounds (prepared at […] the desired final concentration in 9% DMSO/assay buffer) and the FlexStation added the EC60 concentration (prepared at 10× the desired final concentration in 1% DMSO/assay buffer) of each respective control agonist. Peak RFU were used to calculate % control EC60 inhibition with the equation % inhibition=((EC60 RFU−test compound RFU)/EC60 RFU)×100. When IC50 determinations were made, the same antagonist screen procedure was followed except that cells were pretreated with 8-pt concentration-response curves of the test compounds. Peak RFU were plotted against the log of compound concentration using non-linear regression analysis to generate IC50 values (GraphPad Prism). Each test sample was analyzed in duplicate in two independent experiments.
Compounds were evaluated for activity at CaV 3.2 using stable human CaV3.2-HEK293 cells and the control agonist calcium chloride. The day before the assay, cells were plated into 96-well black-walled assay plates coated with poly-D-lysine in DMEM-F12 supplemented with 10% fetal bovine serum, 100 units penicillin/streptomycin, and 500 μM sodium pyruvate, and incubated at 37° C., 5% CO2 overnight. Prior to the assay, Calcium 5 dye (Molecular Devices) was reconstituted according to the manufacturer instructions. The reconstituted dye was diluted 1:10 in pre-warmed (37° C.) assay buffer (1×HBSS, […], […], pH 7.4 at 37° C.). The cells were incubated for 45 minutes at 37° C., 5% CO2 in 200 μL of the diluted Calcium 5 dye. Compounds were prepared as described above and the plate was read with a FLIPR Tetra (Molecular Devices). Calcium-mediated changes in fluorescence were monitored every 1 second over a 60 second time period, with the Tetra adding 25 μL of appropriate compound at the 10 second time point (excitation at 470-495 nm, detection at 515-575 nm). […]

[4] = target: KOR (Homo sapiens, UniProt P41145); test: KOR calcium mobilization agonist/antagonist screen (CHO-RD-HGA16 cells); design: host or cells: CHO-RD-HGA16; conditions: single concentration; for Emax: CHO-RD-HGA16, agonist screen, control agonist U69,593; for KOR Calcium % U69, 593 Inhibition: antagonist screen, vs EC60 of U69,593
Method: as §2

[5] = target: MOR (Homo sapiens, UniProt P35372); test: MOR calcium mobilization agonist/antagonist screen (CHO-RD-HGA16 cells); design: host or cells: CHO-RD-HGA16; conditions: single concentration; for Emax: CHO-RD-HGA16, agonist screen, control agonist DAMGO; for MOR Calcium % DAMGO Inhibition: antagonist screen, vs EC60 of DAMGO
Method: as §2

[6] = target: DOR (Homo sapiens, UniProt P41143); test: DOR calcium mobilization agonist/antagonist screen (CHO-RD-HGA16 cells); design: host or cells: CHO-RD-HGA16; conditions: single concentration; for Emax: CHO-RD-HGA16, agonist screen, control agonist DPDPE; for DOR Calcium % DPDPE Inhibition: antagonist screen, vs EC60 of DPDPE
Method: as §2

T2 sequence (O95180 whole entry): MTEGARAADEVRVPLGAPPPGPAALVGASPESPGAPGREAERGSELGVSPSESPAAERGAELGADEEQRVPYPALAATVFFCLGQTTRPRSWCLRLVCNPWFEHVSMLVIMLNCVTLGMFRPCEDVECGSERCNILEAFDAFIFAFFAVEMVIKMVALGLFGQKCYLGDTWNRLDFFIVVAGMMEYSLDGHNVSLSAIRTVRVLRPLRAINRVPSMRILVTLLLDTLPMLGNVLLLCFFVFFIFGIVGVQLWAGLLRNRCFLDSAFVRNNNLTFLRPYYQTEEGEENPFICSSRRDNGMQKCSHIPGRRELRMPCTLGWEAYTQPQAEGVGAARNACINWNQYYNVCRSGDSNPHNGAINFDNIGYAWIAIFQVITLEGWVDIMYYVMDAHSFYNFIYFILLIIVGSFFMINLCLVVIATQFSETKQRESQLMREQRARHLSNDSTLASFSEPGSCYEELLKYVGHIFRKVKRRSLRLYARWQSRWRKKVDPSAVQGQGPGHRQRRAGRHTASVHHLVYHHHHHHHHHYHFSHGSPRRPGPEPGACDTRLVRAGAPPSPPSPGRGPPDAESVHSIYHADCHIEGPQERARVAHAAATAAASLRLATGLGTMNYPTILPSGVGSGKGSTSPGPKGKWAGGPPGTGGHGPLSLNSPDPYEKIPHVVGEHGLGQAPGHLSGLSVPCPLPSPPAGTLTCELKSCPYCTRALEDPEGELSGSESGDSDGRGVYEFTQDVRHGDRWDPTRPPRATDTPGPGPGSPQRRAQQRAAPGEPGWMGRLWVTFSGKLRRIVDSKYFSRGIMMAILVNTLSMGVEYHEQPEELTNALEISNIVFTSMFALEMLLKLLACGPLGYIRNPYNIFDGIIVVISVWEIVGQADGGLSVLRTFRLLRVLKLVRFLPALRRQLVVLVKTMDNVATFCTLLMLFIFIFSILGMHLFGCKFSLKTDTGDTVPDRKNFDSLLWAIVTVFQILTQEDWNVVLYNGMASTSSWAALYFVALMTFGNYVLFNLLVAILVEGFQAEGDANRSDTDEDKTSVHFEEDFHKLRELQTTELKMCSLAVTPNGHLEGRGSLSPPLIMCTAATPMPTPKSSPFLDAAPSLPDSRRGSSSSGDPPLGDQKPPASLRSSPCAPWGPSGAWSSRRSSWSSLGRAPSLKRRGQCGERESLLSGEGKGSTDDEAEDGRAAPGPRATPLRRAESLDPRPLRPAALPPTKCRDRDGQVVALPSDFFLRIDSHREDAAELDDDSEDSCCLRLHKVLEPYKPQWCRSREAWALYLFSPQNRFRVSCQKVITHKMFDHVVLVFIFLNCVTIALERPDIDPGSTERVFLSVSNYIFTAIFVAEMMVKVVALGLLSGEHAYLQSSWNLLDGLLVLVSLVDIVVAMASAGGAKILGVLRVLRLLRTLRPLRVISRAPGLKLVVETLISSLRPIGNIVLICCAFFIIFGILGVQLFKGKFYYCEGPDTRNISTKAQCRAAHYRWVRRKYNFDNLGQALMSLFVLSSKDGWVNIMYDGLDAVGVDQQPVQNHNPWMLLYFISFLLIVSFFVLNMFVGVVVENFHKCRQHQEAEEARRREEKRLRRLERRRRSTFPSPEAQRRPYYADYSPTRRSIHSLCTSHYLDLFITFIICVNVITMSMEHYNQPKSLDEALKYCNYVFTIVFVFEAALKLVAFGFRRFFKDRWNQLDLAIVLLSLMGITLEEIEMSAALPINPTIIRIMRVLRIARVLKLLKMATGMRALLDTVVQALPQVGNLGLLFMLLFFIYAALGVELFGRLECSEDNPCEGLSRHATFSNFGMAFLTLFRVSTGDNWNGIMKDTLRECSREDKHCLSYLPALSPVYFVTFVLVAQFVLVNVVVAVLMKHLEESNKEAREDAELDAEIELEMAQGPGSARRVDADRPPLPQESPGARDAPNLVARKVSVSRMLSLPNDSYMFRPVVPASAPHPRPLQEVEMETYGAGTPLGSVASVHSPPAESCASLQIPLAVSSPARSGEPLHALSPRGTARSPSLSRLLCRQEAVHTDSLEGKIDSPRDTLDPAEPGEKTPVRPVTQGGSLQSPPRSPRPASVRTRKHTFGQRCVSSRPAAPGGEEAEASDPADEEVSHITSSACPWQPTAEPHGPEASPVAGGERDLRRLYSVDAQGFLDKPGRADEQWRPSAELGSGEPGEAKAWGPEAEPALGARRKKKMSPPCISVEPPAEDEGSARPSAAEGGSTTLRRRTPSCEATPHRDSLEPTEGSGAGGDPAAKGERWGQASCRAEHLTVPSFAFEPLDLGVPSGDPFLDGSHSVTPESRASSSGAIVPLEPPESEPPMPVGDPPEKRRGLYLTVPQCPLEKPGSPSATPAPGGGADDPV
Sequence of MOR (P35372 whole entry): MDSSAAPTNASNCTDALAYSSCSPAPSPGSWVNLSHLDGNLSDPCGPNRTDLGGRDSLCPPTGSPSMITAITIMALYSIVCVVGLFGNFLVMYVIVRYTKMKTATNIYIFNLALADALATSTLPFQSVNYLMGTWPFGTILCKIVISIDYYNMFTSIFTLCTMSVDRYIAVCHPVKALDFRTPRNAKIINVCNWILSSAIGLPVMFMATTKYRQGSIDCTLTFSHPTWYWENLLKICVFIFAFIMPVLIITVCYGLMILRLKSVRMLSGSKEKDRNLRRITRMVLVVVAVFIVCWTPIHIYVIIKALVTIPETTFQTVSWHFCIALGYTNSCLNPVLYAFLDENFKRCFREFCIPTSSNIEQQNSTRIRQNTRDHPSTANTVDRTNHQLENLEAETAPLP
T1 sequence (P61073 whole entry): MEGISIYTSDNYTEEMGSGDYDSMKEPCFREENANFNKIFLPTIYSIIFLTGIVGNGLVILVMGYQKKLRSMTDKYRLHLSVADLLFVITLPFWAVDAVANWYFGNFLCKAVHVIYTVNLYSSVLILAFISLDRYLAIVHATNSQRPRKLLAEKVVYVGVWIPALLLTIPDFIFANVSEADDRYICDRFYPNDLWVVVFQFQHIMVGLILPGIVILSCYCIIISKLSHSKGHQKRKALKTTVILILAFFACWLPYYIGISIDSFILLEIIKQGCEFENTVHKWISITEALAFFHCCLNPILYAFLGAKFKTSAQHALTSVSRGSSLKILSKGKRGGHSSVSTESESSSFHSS
Sequence of DOR (P41143 whole entry): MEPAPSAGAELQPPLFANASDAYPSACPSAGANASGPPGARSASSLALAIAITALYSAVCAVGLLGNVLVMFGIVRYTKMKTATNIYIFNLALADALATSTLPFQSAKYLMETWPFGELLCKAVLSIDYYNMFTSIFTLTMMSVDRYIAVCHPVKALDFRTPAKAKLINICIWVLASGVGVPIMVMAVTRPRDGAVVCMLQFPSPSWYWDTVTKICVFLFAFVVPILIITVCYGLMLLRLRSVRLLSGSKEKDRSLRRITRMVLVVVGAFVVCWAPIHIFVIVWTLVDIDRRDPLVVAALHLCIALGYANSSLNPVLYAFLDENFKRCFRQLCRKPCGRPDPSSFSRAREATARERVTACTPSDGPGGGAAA
Sequence of ACKR3 (P25106 whole entry): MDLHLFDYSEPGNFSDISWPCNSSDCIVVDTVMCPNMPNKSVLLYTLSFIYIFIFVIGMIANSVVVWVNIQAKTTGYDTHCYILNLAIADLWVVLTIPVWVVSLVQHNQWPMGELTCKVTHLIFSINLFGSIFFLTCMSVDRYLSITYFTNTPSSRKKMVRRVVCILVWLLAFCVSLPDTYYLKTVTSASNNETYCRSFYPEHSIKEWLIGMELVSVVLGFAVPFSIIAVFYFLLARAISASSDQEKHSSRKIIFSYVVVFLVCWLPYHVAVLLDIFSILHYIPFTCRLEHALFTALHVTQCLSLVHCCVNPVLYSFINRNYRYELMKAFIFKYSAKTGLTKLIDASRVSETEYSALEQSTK
Sequence of KOR (P41145 whole entry): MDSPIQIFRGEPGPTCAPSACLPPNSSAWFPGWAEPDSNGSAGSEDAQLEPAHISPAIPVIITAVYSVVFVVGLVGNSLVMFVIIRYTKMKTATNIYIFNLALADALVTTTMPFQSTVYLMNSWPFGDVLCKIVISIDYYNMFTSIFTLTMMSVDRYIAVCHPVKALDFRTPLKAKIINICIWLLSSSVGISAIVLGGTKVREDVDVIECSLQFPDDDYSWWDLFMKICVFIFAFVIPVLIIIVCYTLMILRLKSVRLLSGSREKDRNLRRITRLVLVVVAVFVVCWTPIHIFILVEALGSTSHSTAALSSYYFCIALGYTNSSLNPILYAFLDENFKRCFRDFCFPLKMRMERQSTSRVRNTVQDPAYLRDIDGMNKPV

| SMILES | EC50 [1] [µM] | CXCR4 β-arrestin % CXCL-12Emax (n = 2) [2] [%] | CaV 3.2 % CaCl2 Inhibition [3] [%] | Emax [4] [%] | KOR Calcium % U69, 593 Inhibition [4] [%] | Emax [5] [%] | MOR Calcium % DAMGO Inhibition [5] [%] | Emax [6] [%] | DOR Calcium % DPDPE Inhibition [6] [%] | Emax ([1]; read-out: ACKR3 β-arrestin % CXCL12 Emax ± SEM) [%] |
| --- | --- | --- | --- | --- | --- | --- | --- | --- | --- | --- |
| CCOC(=O)c1[nH]c2ccccc2c1CN1CCC(C(=O)OC)CC1 [WW-6, ethyl 3-{[4-(methoxycarbonyl)piperidin-1-yl]methyl}-1H-indole-2-carboxylate] | > 10 | 7 | 19 | 0 | 22 | 0 | 11 | 0 | 1 |  |
| C/C=C1/CNCC[C@H]1C(=O)c1cc2ccccc2[nH]1 [WW-8, (3E,4R)-(3-ethylidenepiperidin-4-yl)(1H-indol-2-yl)methanone] | > 10 | 4 | −14 | 3 | 4 | 1 | 3 | 5 | 3 |  |
| C/C=C1/CN2CC[C@H]1C(=O)c1[nH]c3cc(F)ccc3c1C2 [WW-3, (4E,5R)-4-ethylidene-9-fluoro-1,4,5,7-tetrahydro-2,5-ethanoazocino[4,3-b]indol-6(3H)-one] | > 10 | 1 | 1 | 1 | 14 | 1 | 1 | 0 | 9 |  |
| C/C=C1/CN2CC[C@H]1C(=O)c1[nH]c3ccc(F)cc3c1C2 [WW-4, (4E,5R)-10-fluoro-4-ethylidene-1,4,5,7-tetrahydro-2,5-ethanoazocino[4,3-b]indol-6(3H)-one] | > 10 | 2 | 6 | 1 | 14 | 0 | 0 | 1 | 9 |  |

The next lines start with the values.

| EC50 [1] [µM] | CXCR4 β-arrestin % CXCL-12Emax (n = 2) [2] [%] | CaV 3.2 % CaCl2 Inhibition [3] [%] | Emax [4] [%] | KOR Calcium % U69, 593 Inhibition [4] [%] | Emax [5] [%] | MOR Calcium % DAMGO Inhibition [5] [%] | Emax [6] [%] | DOR Calcium % DPDPE Inhibition [6] [%] | Emax ([1]; read-out: ACKR3 β-arrestin % CXCL12 Emax ± SEM) [%] | SMILES |
| --- | --- | --- | --- | --- | --- | --- | --- | --- | --- | --- |
| > 10 | 2 | −3 | 7 | 8 | 1 | 0 | 4 | 5 |  | C/C=C1/CN(CC(C)C)CC[C@H]1C(=O)c1cc2ccccc2[nH]1 [WW-10, [(3E,4R)-3-ethylidene-1-(2-methylpropyl)piperidin-4-yl](1H-indol-2-yl)methanone] |
| 3.28 ± 0.39 | 8 | 5 | 3 | 6 | 1 | 1 | 5 | 0 | 84 ± 6 | C/C=C1/CN(CCC)CC[C@H]1C(=O)c1cc2ccccc2[nH]1 [WW-14, [(3E,4R)-3-ethylidene-1-propylpiperidin-4-yl](1H-indol-2-yl)methanone] |
